8 compounds from ChEMBL document CHEMBL3112541 (Bioorg Med Chem, 2014) can be followed below.

The structures appear in SMILES notation. Some results are limits rather than exact numbers.

Targets include Carbonic anhydrase 9 (Homo sapiens, UniProt Q16790); Carbonic anhydrase 12 (Homo sapiens, UniProt O43570); Carbonic anhydrase 1 (Homo sapiens, UniProt P00915); Carbonic anhydrase 2 (Homo sapiens, UniProt P00918).

Chain of Carbonic anhydrase 1 (P00915 whole entry): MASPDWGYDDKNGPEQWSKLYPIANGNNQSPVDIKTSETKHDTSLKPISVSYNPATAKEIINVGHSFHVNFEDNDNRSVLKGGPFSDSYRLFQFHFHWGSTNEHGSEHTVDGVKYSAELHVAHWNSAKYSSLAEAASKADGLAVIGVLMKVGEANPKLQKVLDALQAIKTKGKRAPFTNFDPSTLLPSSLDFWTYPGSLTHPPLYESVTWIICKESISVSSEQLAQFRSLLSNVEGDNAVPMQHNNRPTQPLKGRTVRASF
Chain of Carbonic anhydrase 12 (O43570 whole entry): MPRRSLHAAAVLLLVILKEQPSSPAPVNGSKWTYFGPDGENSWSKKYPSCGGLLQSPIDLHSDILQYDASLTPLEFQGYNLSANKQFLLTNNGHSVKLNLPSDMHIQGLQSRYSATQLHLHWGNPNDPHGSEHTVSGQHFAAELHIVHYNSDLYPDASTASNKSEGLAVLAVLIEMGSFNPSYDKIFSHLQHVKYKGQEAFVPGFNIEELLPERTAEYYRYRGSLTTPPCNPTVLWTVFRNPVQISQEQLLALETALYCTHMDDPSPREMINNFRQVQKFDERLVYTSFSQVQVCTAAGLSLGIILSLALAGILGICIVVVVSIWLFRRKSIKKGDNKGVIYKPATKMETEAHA
Description for Carbonic anhydrase 12: Inhibition of human transmembrane carbonic anhydrase 12 by stopped-flow CO2 hydration assay
Description for Carbonic anhydrase 2: Inhibition of human cytosolic carbonic anhydrase 2 by stopped-flow CO2 hydration assay
Description for Carbonic anhydrase 9: Inhibition of human transmembrane carbonic anhydrase 9 by stopped-flow CO2 hydration assay

Turning to `NS(=O)(=O)c1ccc(CN2C(=O)c3ccc([N+](=O)[O-])cc3C2=O)cc1`, the Ki – broadly, a dissociation constant, usually derived from enzyme kinetics or from competition with a known ligand – at Carbonic anhydrase 9 came out at 8.84 µM. The same measure, in the same setting: the result for `NS(=O)(=O)c1ccc(N2C(=O)c3ccc([N+](=O)[O-])cc3C2=O)cc1` reads 8.65 µM. The same measure, in the same setting: the result for `NS(=O)(=O)c1ccc(CN2C(=O)c3cccc([N+](=O)[O-])c3C2=O)cc1` reads 0.873 µM; that for `NS(=O)(=O)c1cccc(N2C(=O)c3cccc([N+](=O)[O-])c3C2=O)c1`, 8.35 µM. Consider `NS(=O)(=O)c1ccccc1N1C(=O)c2cccc([N+](=O)[O-])c2C1=O`, for which the Ki on Carbonic anhydrase 9 is 7.82 µM; at Carbonic anhydrase 12, above 10 µM; on Carbonic anhydrase 1, above 10 µM.

Turning to `NS(=O)(=O)c1ccccc1N1C(=O)c2ccc([N+](=O)[O-])cc2C1=O`, the Ki on Carbonic anhydrase 9, at Carbonic anhydrase 2 and on Carbonic anhydrase 1 was above 10 µM in each case. On Carbonic anhydrase 9, `NS(=O)(=O)c1cccc(N2C(=O)c3ccc([N+](=O)[O-])cc3C2=O)c1` came in with a Ki of 10 µM.

As to `NS(=O)(=O)c1ccc(CCN2C(=O)c3ccc([N+](=O)[O-])cc3C2=O)cc1`, the Ki at Carbonic anhydrase 9 is above 10 µM.
